Reference: paper PMC9811466, “Structural Features Affecting the Interactions and Transportability of LAT1-Targeted Phenylalanine Drug Conjugates” (Molecular Pharmaceutics, 2022)
Several values for one entry are separate records, joined by “and”; a condition that tells them apart may be missing. Equal entries are not always repeated. Entries after “also recorded” stand apart in the source; their conditions may differ. Where two headings read alike, the source gives them in different places.

Tests used:
hLAT1/4F2hc [1] = biological target: T1, hLAT1/4F2hc (Homo sapiens, UniProt Q01650); test: cis-inhibition of [14C]-L-leucine uptake in HEK-hLAT1 cells; assay type: cell-based; settings: for inhibition at 50 µM / [14C]-L-Leucine uptake inhibition % (50μM): 50 μM compound; for inhibition at 50 µM: read-out: [14C]-L-Leucine uptake inhibition % (50μM)
T1 construct: Invitrogen (host cells)
T1 sequence (Q01650 whole entry): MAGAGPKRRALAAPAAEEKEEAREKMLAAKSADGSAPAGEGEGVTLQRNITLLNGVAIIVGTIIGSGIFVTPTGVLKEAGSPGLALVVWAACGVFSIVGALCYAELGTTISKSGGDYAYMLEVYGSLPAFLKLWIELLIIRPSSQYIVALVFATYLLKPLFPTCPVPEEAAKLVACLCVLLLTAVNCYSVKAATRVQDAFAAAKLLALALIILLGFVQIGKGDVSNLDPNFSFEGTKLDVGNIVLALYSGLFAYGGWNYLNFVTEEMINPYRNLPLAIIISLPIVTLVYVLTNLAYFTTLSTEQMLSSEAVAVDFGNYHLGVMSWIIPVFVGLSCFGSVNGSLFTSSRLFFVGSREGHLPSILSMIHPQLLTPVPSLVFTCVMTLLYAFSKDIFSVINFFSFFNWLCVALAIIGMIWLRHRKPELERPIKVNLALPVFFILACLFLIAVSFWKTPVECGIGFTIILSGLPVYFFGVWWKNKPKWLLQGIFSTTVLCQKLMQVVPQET
T1 sequence (P08195 102-630 partner): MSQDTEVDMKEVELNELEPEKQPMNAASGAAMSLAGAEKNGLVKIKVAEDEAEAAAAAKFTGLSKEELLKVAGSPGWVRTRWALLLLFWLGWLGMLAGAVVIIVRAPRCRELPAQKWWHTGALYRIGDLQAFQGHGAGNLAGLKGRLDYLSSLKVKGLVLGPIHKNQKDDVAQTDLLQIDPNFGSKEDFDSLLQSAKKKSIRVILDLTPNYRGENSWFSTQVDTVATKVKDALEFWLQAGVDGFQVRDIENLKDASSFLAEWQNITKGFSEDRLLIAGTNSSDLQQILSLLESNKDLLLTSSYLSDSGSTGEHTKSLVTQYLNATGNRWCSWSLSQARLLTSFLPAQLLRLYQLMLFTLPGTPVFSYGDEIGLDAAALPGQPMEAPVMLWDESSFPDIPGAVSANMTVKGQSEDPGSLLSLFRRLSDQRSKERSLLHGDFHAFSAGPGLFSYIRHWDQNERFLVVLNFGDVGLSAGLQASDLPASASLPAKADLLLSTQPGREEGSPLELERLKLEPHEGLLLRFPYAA
Procedure: (§1) In the following experiments, the MCF-7, HEK-hLAT1, and HEK-MOCK cells were cultured, seeded, and preincubated as described above. The HBSS was removed, and the ability of the compounds to inhibit the uptake of a known LAT1 substrate, [^14C]-L-leucine (PerkinElmer, Waltham, MA, USA), was studied by incubating the cells at RT for 10 min in uptake buffer pH 7.4 (250 μL) containing 0.76 μM (0.1 mCi/mL) of [^14C]-L-leucine and 0.025–1800 μM of the studied compound (or HBSS as blank). After incubation, the reaction was stopped with ice-cold HBSS, and the cells were washed two times with ice-cold HBSS. The cells were then lysed with 250 μL of 0.1 M sodium hydroxide, the lysate was mixed with 1.0 mL of Emulsifier safe cocktail (PerkinElmer, Waltham, MA, USA), and the radioactivity was measured with a liquid scintillation counter (MicroBeta^2 counter, PerkinElmer, Waltham, MA, USA). The inhibition of [^14C]-L-leucine in the presence of the studied compounds as compared to the control (HBSS) was calculated as percentages (%).
Using the stably hLAT1/4F2hc expressing cell line, the compounds’ inhibitory efficiencies and uptake kinetics were determined via the cis-inhibition assay and uptake studies, respectively. (Table 1) Cis-inhibition is based on the competition between the ligand and LAT1 substrate [^14C]-L-leucine that results in inhibition of substrate uptake. The competitive uptake with L-leucine is reported as the IC50 value of L-leucine uptake and extent as inhibition percentage (%) at a given concentration.

MCF-7 cells = settings: cited from earlier work
hLAT1/4F2hc [2] = biological target: T1, hLAT1/4F2hc; test: Concentration-dependent cellular uptake into HEK-hLAT1 cells (LC-MS/MS, Michaelis-Menten); assay type: cell-based; settings: difference in uptake HEK-hLAT1 vs HEK-MOCK, with docking poses; 2-100 μM curves
[3] = biological target: T2, LAT1 in MCF-7 human breast cancer cells (Homo sapiens, UniProt Q01650); test: cis-inhibition of [14C]-L-leucine uptake in MCF-7 cells; assay type: cell-based; settings: for inhibition at 50 µM: MCF7, MCF-7 cells
T2 construct: wild-type MCF-7 human breast cancer cell line; endogenous in cells; host or cells: MCF-7 human breast cancer cells (wild type)
T2 sequence (Q01650 whole entry): as the sequence (Q01650 whole entry) above
T2 sequence (P08195 102-630 partner): as the sequence (P08195 102-630 partner) above
Procedure: Cells were cultured in DMEM (Gibco, ThermoFisher Scientific, Waltham, MA, USA) supplemented with L-glutamine (2 mM; ThermoFisher Scientific, Waltham, MA, USA), heat-inactivated fetal bovine serum (10%; Gibco, ThermoFisher Scientific, Waltham, MA, USA), penicillin (50 U/mL)-streptomycin (50 μg/mL) solution (ThermoFisher Scientific, Waltham, MA, USA), and hygromycin B solution (100 μg/mL) for transfected cells. HEK-hLAT1 and HEK-MOCK cells (passages 7–20) were seeded at a density of 5 × 10^5 cells/wells onto 24-well plates. The cells were used in the characterization, competition, and uptake studies 2 days after seeding. MCF-7 cells were seeded at a density of 1 × 10^5 and were used in the competition studies 1 day after seeding. The culture medium was removed, and the cells were washed with prewarmed Hanks’ balanced salt solution (HBSS; 125 mM NaCl, 4.8 mM KCl, 1.2 mM MgSO4, 1.2 mM KH2PO4, 1.3 mM CaCl2, 5.6 mM D-glucose, and 25 mM HEPES, pH 7.4). The cells were then incubated with HBSS at 37 °C for 10 min before the experiments.
as §1

hLAT1/4F2hc [4] = biological target: T1, hLAT1/4F2hc; test: Concentration-dependent cellular uptake into HEK-hLAT1 cells (LC-MS/MS, Michaelis-Menten); assay type: cell-based; settings: HEK-hLAT1 cells; for Vmax: 2-400 μM, 10 min
Procedure: (§2) The concentrations for the compounds were in the range of 2–400 μM. Otherwise, the experiment was carried out as described above and analyzed by liquid chromatography coupled with an electrospray ionization (ESI) triple quadrupole mass spectrometer (LC–MS–MS). […]
(§3) The concentration-dependent uptake studies were performed by adding 2–400 μM of the tested compound in 250 μL of prewarmed HBSS buffer on the cell layer. […] After incubation, the cells were washed and lysed as described above. The lysate was collected from wells into an Eppendorf tube and centrifuged at 4 °C, the supernatant was collected, and the intracellular concentrations of studied compounds were analyzed by liquid chromatography coupled with an ESI triple quadrupole mass spectrometer (LC–MS–MS). The results were calculated from the standard curve that was prepared by spiking known amounts of each compound to the cell lysate and normalized to protein concentration. The protein concentrations on each plate were determined as a mean of three samples by Bio-Rad Protein Assay, based on the Bradford dye-binding method, using BSA as a standard protein and measuring the absorbance (595 nm) by a multiplate reader (EnVision, PerkinElmer, Inc., Waltham, MA, USA). All statistical analyses (Michaelis–Menten kinetic parameters) were performed using GraphPad Prism v. 5.03 software (GraphPad Software, San Diego, CA., USA). […]
(§4) After protein precipitation, the samples were centrifuged for 10 min with 10,000 g at 4 °C. The supernatant was then collected and transferred to vials for LC–MS/MS analysis. For BCH and gabapentin, cells were also lysed with 0.1 M NaOH, an aliquot was taken from the lysates, and perchloric acid (PCA) was added to precipitate the proteins. The samples were then centrifuged, and the supernatant was diluted 1:10 with H20 with 0.1% formic acid including the IS and transferred to vials for analysis.
(§5) The samples were analyzed with LC–MS/MS coupled with an Agilent 1200 series Rapid Resolution LC System (Agilent Technologies, Waldbronn, Germany) and an Agilent 6410 Triple Quadrupole with electrospray ionization (ESI) (Agilent Technologies, Palo Alto, CA, USA). […] The aqueous mobile phase was 0.1% formic acid in water (A), while the organic mobile phase was 0.1% formic acid in acetonitrile (B). […] For compound 4: 0–4 min 10% → 90% B, 4–6 min 90% B, 6–6.1 min 90% → 10%, 6.1–9 min 10%. For compound 5: 0–1 min 20% → 95% B, 1–4 min 95%, 4–4.1 min 95% → 20%, 4.1–7 min 20%. For compounds 6 and 9: 0–2 min 10% → 95%, 2–6 min 95%, 6–6.1 min 95% → 10%, 6.1–9 min 10%. For compound 8: 0–1 min 20% → 80%, 1–5.2 min 80%, 5.2–5.3 min 80% → 20%, 5.3–9 min 20%.

HEK-MOCK cells [5] = test: Concentration-dependent cellular uptake into HEK-MOCK cells; assay type: cell-based, human; settings: for Vmax: 10 min
Procedure: as §2, §3, §4, §5

[6] = biological target: T2, LAT1 in MCF-7 human breast cancer cells; settings: MCF-7 cells; read-out: IC50 of [14C]-L-leucine uptake; cited from earlier work
HEK-MOCK cells [7] = test: cis-inhibition of [14C]-L-leucine uptake in HEK-MOCK cells; assay type: cell-based, human; settings: HEK-MOCK cells, known substrates; for [14C]-L-Leucine uptake inhibition % (50μM): 50 μM compound, 0.76 μM [14C]-L-leucine, 10 min
Procedure: as §1
Using the stably hLAT1/4F2hc expressing cell line, the compounds’ inhibitory efficiencies and uptake kinetics were determined via the cis-inhibition assay and uptake studies, respectively. (Table 1) Cis-inhibition is based on the competition between the ligand and LAT1 substrate [^14C]-L-leucine that results in inhibition of substrate uptake. The competitive uptake with L-leucine is reported as the IC50 value of L-leucine uptake and extent as inhibition percentage (%) at a given concentration. Overall, the inhibition trends of the tested compounds were similar between HEK-hLAT1 and MCF-7 cells. In the next step, more straightforward results were obtained by undertaking direct cellular uptake studies with both HEK-hLAT1 and HEK-MOCK cells. This experiment enabled us to determine not only the uptake kinetics (Vmax and Km) of the ligands but also their preference for LAT1-expressing cells over the comparator HEK-MOCK cells.

[8] = HEK-hLAT1 cells, compounds 1-12
[9] = HEK-hLAT1 cells, compounds 1-12, read-out: IC50 of [14C]-L-leucine uptake
[10] = HEK-hLAT1 cells, compounds 1-12, 50 µM
[11] = known LAT1 substrates, n = 3, read-out: Km
[12] = HEK-hLAT1 cells, known substrates, read-out: IC50 of [14C]-L-leucine uptake
[13] = known LAT1 substrates, 2-400 μM, n = 3

## N[C@@H](Cc1cccc(C(=O)NCCc2ccc(O)c(O)c2)c1)C(=O)O [Compound 3]
hLAT1/4F2hc [1]; [8]
  inhibition at 50 µM: 4.27 ± 3.94%
hLAT1/4F2hc [1]; [9]
  IC50: > 100 µM
MCF-7 cells; MCF-7 cells, previous studies
  Vmax: < 3 pmol/min/mg
hLAT1/4F2hc [2]
  interaction class with LAT1 (interaction and transportability): highest interactions
[3]; MCF-7 cells
  IC50: 3.3 ± 1.3 µM

## CC(C(=O)Nc1cccc(C[C@H](N)C(=O)O)c1)c1cccc(C(=O)c2ccccc2)c1 (some centres unmarked) [Compound 5]
hLAT1/4F2hc [4]; compounds 1-12
  Vmax: 63±7.5 pmol/min/mg of protein
hLAT1/4F2hc [4]; compounds 1-12, read-out: Km
  Km: 19 ± 7.3 µM
hLAT1/4F2hc [1]; [8]
  inhibition at 50 µM: 48 ± 1.8%
hLAT1/4F2hc [1]; [9]
  IC50: 11 µM
HEK-MOCK cells [5]; compounds 1-12
  Km: 109 ± 69 µM
HEK-MOCK cells [5]; compounds 1-12, 2-400 μM
  Vmax: 63±24 pmol/min/mg of protein
[6]
  IC50: 0.5 ± 0.05 µM
hLAT1/4F2hc [2]
  interaction class with LAT1 (interaction and transportability): medium interactions
[3]; 50 μM compound
  inhibition at 50 µM: 93 ± 0.5%

## COc1cc(/C=C/C(=O)Nc2cccc(C[C@H](N)C(=O)O)c2)ccc1O [Compound 9]
hLAT1/4F2hc [1]; [10]
  [14C]-L-Leucine uptake inhibition % (50μM): not able to inhibit; also recorded: no inhibition
hLAT1/4F2hc [1]; [9]
  IC50: > 100 µM
HEK-MOCK cells [5]; compounds 1-12
  Km: 94 ± 45 µM
HEK-MOCK cells [5]; compounds 1-12, 2-400 μM
  Vmax: 149±41 pmol/min/mg of protein
[6]
  IC50: 1.1 ± 0.08 µM
hLAT1/4F2hc [2]
  interaction class with LAT1 (interaction and transportability): low
[3]; 50 μM compound
  inhibition at 50 µM: 79.7 ± 7.87%

## N[C@@H](Cc1ccc(OC(=O)NCCc2ccc(O)c(O)c2)cc1)C(=O)O [Compound 2]
hLAT1/4F2hc [4]; compounds 1-12
  Km: 103 ± 41 µM
  Vmax: 1521 pmol/min/mg of protein and 1521±364 pmol/min/mg of protein
hLAT1/4F2hc [1]
  IC50: > 100 µM
hLAT1/4F2hc [1]; [8]
  [14C]-L-Leucine uptake inhibition % (50μM): no inhibition
HEK-MOCK cells [5]; compounds 1-12
  Km: 8.7 ± 12 µM
HEK-MOCK cells [5]; compounds 1-12, 2-400 μM
  Vmax: 19 pmol/min/mg of protein and 19±12 pmol/min/mg of protein
MCF-7 cells; MCF-7 cells, previous studies
  Vmax: < 3 pmol/min/mg
hLAT1/4F2hc [2]
  interaction class with LAT1 (interaction and transportability): highest interactions

## NCC1(CC(=O)O)CCCCC1 [Gabapentin, reference compound]
HEK-MOCK cells [7]
  [14C]-L-Leucine uptake inhibition % (50μM): no inhibition
HEK-MOCK cells [7]; Homo sapiens, read-out: IC50 of [14C]-L-leucine uptake
  IC50: > 1000 µM
hLAT1/4F2hc [4]; known LAT1 substrates, n = 3
  Vmax: 18±9.9 nmol/min/mg of protein
hLAT1/4F2hc [4]; [11]
  Km: 552 ± 334 µM
hLAT1/4F2hc [1]; HEK-hLAT1 cells, 0.76 μM [14C]-L-leucine, 10 min, known substrates
  inhibition at 50 µM: 46.7 ± 1.7%
hLAT1/4F2hc [1]; [12]
  IC50: 36 µM
HEK-MOCK cells [5]; [13]
  Vmax: 4.7±1.6 nmol/min/mg of protein
HEK-MOCK cells [5]; known LAT1 substrates, n = 3
  Km: 182 ± 86 µM

## CCCN(CCC)S(=O)(=O)c1ccc(C(=O)Nc2cccc(C[C@H](N)C(=O)O)c2)cc1 [Compound 10]
hLAT1/4F2hc [1]; [10]
  [14C]-L-Leucine uptake inhibition % (50μM): 11±9.9%
hLAT1/4F2hc [1]; [8]
  inhibition at 50 µM: 10%
hLAT1/4F2hc [1]; [9]
  IC50: > 100 µM
HEK-MOCK cells [5]; compounds 1-12, 2-400 μM
  Vmax: 248±616 pmol/min/mg of protein
MCF-7 cells; MCF-7 cell line
  Km: 15.2 µM
  Vmax: 111 pmol/min/mg
hLAT1/4F2hc [2]
  interaction class with LAT1 (interaction and transportability): low
[3]; 50 μM compound
  inhibition at 50 µM: 40%
[3]; MCF-7 cells
  IC50: 137 ± 1.6 µM
[3]; MCF-7 cells, 50 μM compound, 50 µM
  [14C]-L-Leucine uptake inhibition % (50μM): 45±1.7%

## N[C@@H](Cc1ccc(O)c(O)c1)C(=O)O [L-DOPA, reference compound]
HEK-MOCK cells [7]
  [14C]-L-Leucine uptake inhibition % (50μM): no inhibition
hLAT1/4F2hc [4]; known LAT1 substrates, n = 3
  Vmax: 15±7.6 nmol/min/mg of protein
hLAT1/4F2hc [4]; [11]
  Km: 763 ± 413 µM
hLAT1/4F2hc [1]; [12]
  IC50: 4.1 µM
HEK-MOCK cells [5]; [13]
  Vmax: 2.8±0.9 nmol/min/mg of protein
HEK-MOCK cells [5]; known LAT1 substrates, n = 3
  Km: 225 ± 90 µM
